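Method: 48-hour compound exposure of cells in 96-well plates, five concentrations, linear interpolation of endpoints. GI50: concentration for 50% inhibition of growth. TGI: concentration producing complete growth inhibition.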

The values that follow come from PubChem BioAssay (NCI).

Assay in all cases: NCI-60 cell line screen, 48 h
Experiment [1] concerns CAKI-1 renal.
Experiment [2] deals with HT29 colon.
Experiment [3] has as its system NCI-H522 lung.
For experiment [4], the system named is COLO 205 colon.
Experiment [5] deals with SF-268 CNS.
Experiment [6] relates to MALME-3M melanoma.
The subject of experiment [7] is KM12 colon.
Experiment [8] relates to ACHN renal.
In experiment [9] the test system is BT-549 breast.

For `O=C([CH-]C(=O)c1ccccc1)c1ccccc1.O=C([CH-]C(=O)c1ccccc1)c1ccccc1.[OH-].[OH-].[Ti+4]`, the GI50 is 85.3 µM in experiment [1]; > 100 µM in [2]; 24.2 µM in experiment [3]; > 100 µM in experiment [4]; 92.5 µM in experiment [5]; > 100 µM in experiment [6]. The GI50 in experiment [7] and in experiment [8] was > 100 µM in each case. Moreover, the TGI in experiment [1] is > 100 µM; in experiment [2], > 100 µM; in experiment [3], 69.7 µM; in [4] it was > 100 µM; in experiment [5], > 100 µM; in experiment [6], > 100 µM. The TGI in experiment [7] and in [8] was > 100 µM in each case.

`CN(C)CCC(/C=C/c1ccccc1)=N\Nc1ccc(Cl)cc1Cl`: the TGI in experiment [2] came out at 27.2 µM; in [3] it was 30.6 µM; in [4] it was 28.1 µM; in [5] it was 28.2 µM; in experiment [6] it was 41.2 µM; in experiment [7], 29.7 µM. Further, the TGI in experiment [8] came out at 25.5 µM.

Take `C/C=C(\C)c1cc(O)c(C)c2c1Oc1cc(O)c(Cl)c(C)c1C(=O)O2`: the TGI in experiment [1] is > 100 µM; in [2], 34.7 µM; in [3] it was 51.3 µM; in experiment [4], 49.3 µM; in [5], 66 µM; in [7], 47.6 µM. This compound had a TGI in [8] of 54.6 µM.

In the case of `Fc1cccc(C2SCc3nc4ccccc4n32)c1F` (stereo unspecified), the TGI in experiment [1], in [2], in [3], in experiment [4], in [5] and in [6] was > 100 µM each time. Further, the TGI in experiment [7] and in experiment [8] was > 100 µM throughout.

Turning to `CCOC1=C2N=C(Cc3ccccc3F)N=C2C(=O)c2ccccc21`, the TGI in experiment [1], in experiment [2], in experiment [3], in experiment [4], in [5] and in experiment [6] was > 100 µM each time. Also, the TGI in experiment [7] and in experiment [8] was > 100 µM throughout.

Take `COc1ccc(C(Cl)=C(c2ccc(OCCN(C)C)cc2)c2ccc(OCCN(C)C)cc2)cc1`: the TGI stood at 16.3 µM in experiment [1]; 3 µM in experiment [2]; 3.01 µM in [3]; 2.94 µM in [4]; 4.71 µM in experiment [5]; 3.35 µM in experiment [6]. Further, the TGI was 2.83 µM in experiment [7] and 4.72 µM in experiment [8].

As for `Cn1c2ccccc2n2c(=O)c3c(c(C#N)c12)CCCC3`, the TGI in experiment [1], in experiment [2], in experiment [4], in experiment [5], in experiment [6] and in experiment [7] was > 100 µM in each case. Also, the TGI in experiment [8] is > 100 µM.

Consider `COCCOCOc1ccc(OCOCCOC)c2c1C(=O)c1ccccc1C2=O`, for which the TGI in experiment [1] was > 93 µM; in experiment [2], > 100 µM; in experiment [4] it was > 100 µM; in experiment [5], > 100 µM; in experiment [6], > 100 µM; in [7] it was > 100 µM. Besides, the TGI in experiment [8] was > 100 µM.

Turning to `Cc1ccc(S(=O)OC2C3CC4CC(C3)CC2C4)cc1` (stereo unspecified), the TGI in experiment [1], in experiment [2], in experiment [3], in experiment [4], in [5] and in experiment [6] was > 100 µM in each case. Also, the TGI in [7] and in [8] was > 100 µM each time.

As for `COc1ccc(C(=O)N2c3ccccc3Sc3ccccc32)c(OC)c1`, the GI50 was 0.573 µM in experiment [1]; 0.385 µM in experiment [2]; 0.343 µM in experiment [3]; 0.659 µM in experiment [9]; 0.853 µM in experiment [5]; 0.416 µM in experiment [6]. The GI50 in [7] is 0.438 µM; in [8], 0.726 µM. The TGI in [1], in experiment [2], in experiment [3], in experiment [9], in experiment [5] and in experiment [6] was > 100 µM each time. Besides, the TGI in experiment [7] and in [8] was > 100 µM each time.

As for `CCO/C=C1\N=C(c2ccccc2Br)OC1=O`, the TGI in experiment [1], in experiment [2], in experiment [3], in experiment [4], in experiment [5] and in experiment [6] was > 100 µM in each case. In experiment [8], the TGI was > 100 µM.

`CN1COc2c(n(C)c(=O)[nH]c2=O)C1`: the TGI is > 68.3 µM in experiment [1]; > 100 µM in experiment [2]; > 100 µM in experiment [3]; > 100 µM in experiment [4]; > 100 µM in experiment [5]; > 100 µM in experiment [6]. Besides, the TGI in [7] and in experiment [8] was > 100 µM throughout.

As to `COc1ccc(C=O)c(NC(=O)C(C)C)c1`, the TGI is > 100 µM in experiment [2]; 46.3 µM in experiment [3]; 34.1 µM in experiment [4]; > 100 µM in experiment [5]; 94.4 µM in experiment [6]; > 10 µM in experiment [7]. Further, the TGI in [8] is > 100 µM.

As to `COc1ccc2c(c1)OC1=C(C(=O)OC1)C2c1cc(OC)c2c(c1)OCO2` (stereo unspecified), the GI50 was 0.108 µM in [1]; 0.0328 µM in [2]; < 0.0111 µM in [3]; 0.031 µM in [4]; 0.0795 µM in [5]; > 100 µM in experiment [6]. Further, the GI50 in [7] was 0.0304 µM; in [8], 0.267 µM. In addition, the TGI in experiment [1] is > 100 µM; in experiment [2], > 100 µM; in [3], 0.0472 µM; in experiment [4] it was 0.0908 µM; in experiment [9] it was > 100 µM; in [5], > 100 µM. Moreover, the TGI in experiment [6] was > 100 µM; in experiment [7], 0.416 µM; in experiment [8], > 100 µM.
